According to paper PMC9487543 (Antimicrobial Agents and Chemotherapy, 2022):
Read-outs that look alike come from different tables or passages of the source. Marks after values point to notes of the source that are not given here.

What was measured:
[1] = cited from earlier work
[2] = Plasma pharmacokinetics in hemodialysis-dependent subjects, On-dialysis vs Off-dialysis periods; type: in vivo, human; settings: for AUC(0-inf) / Cmax / AUCinf / CL / VZ / t1/2: single 2 h IV infusion 2 g cefepime + 0.5 g taniborbactam; for AUC(0-inf) / Cmax / AUCinf / CL / VZ: geometric mean (geometric CV %); for t1/2: mean (SD)
Procedure: (§1) In addition to the groups enrolled by renal function to study the effect of renal impairment, a group of subjects with ESRD undergoing chronic intermittent hemodialysis were enrolled into a separate group (Group 5; “Dialysis”) to determine the amounts of drug removed by filtration. Hemodialysis used standard commercial dialyzers and membranes. […] A fixed sequence of dialysis timing with respect to dose was used, where the dose was administered prior to dialysis in the first treatment period (“On-dialysis”; Period 1) and administered following dialysis in the second treatment period (“Off-dialysis”; Period 2). […] For the Off-dialysis period, subjects had the SOI begin approximately 6 h after the start of dialysis, which was after the dialysis had been completed.
Additional blood samples, if not already collected by a defined time point, were collected at 1 h after the start of dialysis and again at the end of dialysis.
Human dipotassium ethylenediaminetetraacetic acid plasma samples were processed using protein precipitation prior to assay. Urine samples collected for pharmacokinetic analysis in the study were processed and assayed for only taniborbactam using a validated bioanalytical method. […] Acidified urine and dialysate samples were processed using solid-phase extraction prior to assay. […]
(§2) Estimated plasma pharmacokinetic parameters included the Cmax, time to Cmax (Tmax), AUC through the last measurable observed concentration (AUCt), AUCinf, t1/2, CL, and VZ. For taniborbactam, using the urine observations, the amount excreted unchanged in urine (Ae), fraction excreted unchanged in urine as the percentage of administered dose (Fe), renal clearance (CLR), and nonrenal clearance (CLNR) were calculated. The actual sample times were used to calculate the pharmacokinetic parameters. […] If a good estimate of λZ could not be determined for a concentration-time profile, then none of the pharmacokinetic parameters dependent on λZ were calculated.
(§3) For Dialysis subjects (Group 5), the effect of hemodialysis was examined by comparing differences within each subject (On-Dialysis versus Off-Dialysis). The CLd was calculated by taking the individual averaged arterial to venous concentration extraction ratio (CER), multiplying by the reported Qb, and correcting for hematocrit (hct). The hct was estimated as 0.47, an assumption based on the fact that all subjects in the group were male. The amounts of drug removed by hemodialysis (Adial) were calculated using the area under the excretion rate curves, where the rates were determined using the spot dialysis concentrations and estimated dialysate volumes over a 1 min period using the Qd. The fraction of drug removed during hemodialysis, or HER, was then determined by dividing Adial by dose and was expressed as a percentage.

[3] = Safety and tolerability in subjects with various degrees of renal impairment; settings: human, in vivo
Procedure: Safety was assessed based on the occurrence of adverse events and on the evaluation of laboratory tests (chemistry, hematology, urinalysis, and coagulation), physical examinations, vital signs, and 12-lead ECGs. Safety was followed through 7 days post-dose.

[4] = Dialysis parameters (dialysis clearance, hemodialysis extraction ratio); type: in vivo, human
Procedure: as §1
Human dipotassium ethylenediaminetetraacetic acid plasma samples were processed using protein precipitation prior to assay. Urine samples collected for pharmacokinetic analysis in the study were processed and assayed for only taniborbactam using a validated bioanalytical method. […] Acidified urine and dialysate samples were processed using solid-phase extraction prior to assay.
(§4) Validated LC-MS/MS methods (LLOQ = 5.00 ng/mL) were used to quantitate the concentrations of taniborbactam in urine.
as §3

[5] = Urine pharmacokinetics (renal clearance) of taniborbactam by renal group; type: in vivo, human; settings: single 2 h IV infusion 2 g cefepime + 0.5 g taniborbactam, geometric mean (geometric CV %)
Procedure: Urine was collected to further assess taniborbactam pharmacokinetics. Subjects were instructed to empty their bladders completely before study drug administration and just before the end of each collection interval. Urine from each timed interval was collected in a separate container. The exact start dates, stop dates, times of urine collection, and the weight and volume of each collection were recorded. Urine samples were collected within intervals of 0 to 6 h, 6 to 12 h, 12 to 24 h, 24 to 48 h, 48 to 72 h, and 72 to 96 h following the SOI. […] Urine samples were not collected from anuric subjects.
[…]. […] […].

[6] = test system: Ambler Class A, C, and D serine-β-lactamases, and the Ambler class B metallo-β-lactamases; settings: including VIM and NDM; cited from earlier work
[7] = human, in vivo
Text: Subjects aged 18 to 80 years were enrolled into 1 of 4 groups based on the level of renal function (renal groups). […] Subjects in the Normal group were matched to subjects with renal impairment with regard to gender, age (±10 years), and weight (±10 kg). A single healthy subject may have been the match for more than one subject with renal impairment.
Human dipotassium ethylenediaminetetraacetic acid plasma samples were processed using protein precipitation prior to assay. Urine samples collected for pharmacokinetic analysis in the study were processed and assayed for only taniborbactam using a validated bioanalytical method. […]
as §4
as §2, with “calculated.” for “calculated. The actual sample times were used to calculate the pharmacokinetic parameters.”, “calculated. […]” for “calculated.”

[8] = Dialysis group, Off-dialysis (n = 7)
[9] = Dialysis group, On-dialysis (n = 6)

In the case of `CO/N=C(\C(=O)N[C@@H]1C(=O)N2C(C(=O)[O-])=C(C[N+]3(C)CCCC3)CS[C@H]12)c1csc(N)n1` [cefepime, Cefepime, reference compound], the “amount removed during a hemodialysis session” value ([1]; 3 h hemodialysis session) is listed as “approximately 68%”, the “dose excreted unchanged in urine” value ([1]; following administration of 0.25 to 2 g cefepime) is listed as “at least 80%” and the AUC(0-inf) ([2]; male, human, plasma, iv, Dialysis group, Off-dialysis (n = 7)) is listed as 4550 µg·h/mL. It also gave a Cmax ([2]; male, human, plasma, iv, Dialysis group, Off-dialysis (n = 7), read-out: Cmax) of 165 µg/mL, an AUC(0-inf) ([2]; male, human, plasma, iv, Dialysis group, On-dialysis (n = 6)) of 1600 µg·h/mL and a Cmax ([2]; male, human, plasma, iv, Dialysis group, On-dialysis (n = 6), read-out: Cmax) of 105 µg/mL.
In the case of cefepime-taniborbactam, the “adverse events considered related to treatment” value [3] is reported as 7 of 8, the “adverse events mild in severity” value [3] is reported as 7 of 8 and the deaths [3] is reported as “no deaths”. The “number of treatment emergent adverse events” value [3] was 8, the serious adverse events [3] was “No subjects experienced serious adverse events” and the “subjects who experienced treatment emergent adverse events” value [3] was 7 subjects.
In the case of `NCCN[C@H]1CC[C@H](CC(=O)N[C@H]2Cc3cccc(C(=O)O)c3OB2O)CC1` [taniborbactam, Taniborbactam], the “hemodialysis extraction ratio (HER), fraction of dose removed during hemodialysis, mean (SD)” value ([4]; On-dialysis period, 4 h hemodialysis session) is reported as 49.7%, the “dialysis clearance (CLd), mean (SD)” value ([4]; On-dialysis period, 4 h hemodialysis, Qb 350 to 450 mL/min) is reported as 102 (5.3) mL/min and the dialyzability ([4]; hemodialysis) is reported as “dialyzable”. For the same compound, the “dose recovered in urine as unchanged parent compound” value ([1]; at steady-state) was “approximately 89%”, the AUCinf [2, 8] was 2003 (32.1) h·μg/mL and the CL [2, 8] was 0.245 (29.8) L/h. The Cmax [2, 8] was 37.7 (73.7) μg/mL, the VZ [2, 8] was 23.7 (13.4) L and the t1/2 [2, 8] was 70.8 (22.3) h. For the same compound, the AUCinf [2, 9] was 851 (23.0) h·μg/mL, the CL [2, 9] was 0.579 (23.0) L/h and the Cmax [2, 9] was 23.4 (9.5) μg/mL. The VZ [2, 9] was 68.1 (15.1) L, the t1/2 [2, 9] was 83.7 (21.5) h and the “decrease in geometric mean AUC following hemodialysis” value ([2]; Dialysis group, On-dialysis vs Off-dialysis) was 58%. For the same compound, the “AUCinf least-squares GMR (90% CI)” value ([2]; On-dialysis/Off-dialysis) was 39.29%, the CLR ([5]; Mild renal impairment (n = 6)) was 4.23 (22.7) L/h and the CLR ([5]; Moderate renal impairment (n = 6)) was 1.59 (21.0) L/h. For the same compound, the CLR ([5]; Normal renal function (n = 7)) was 4.37 (17.8)^d L/h, the CLR ([5]; Severe renal impairment (n = 6)) was 0.76 (120.3) L/h and the β-lactamase inhibition [6] was “potent competitive inhibition”. For the same compound, the “VZ least-square geometric mean ratio (90% CI)” value [7] was 149.94%.
